Measurements from patent US8034329B2, “Repair and regeneration of renal tissue using human umbilical cord tissue-derived cells” (Advanced Technologies And Regenerative Medicine, LLC, priority 2007, dated 2011).

Tested on: HLA-DR, DP, DQ expression of hUTC
Assay: Inhibition of IFN-gamma-induced expression of HLA-DR, DP, DQ on hUTC, flow cytometry
Assay type: cell-based, human
Experimental: Culture-expanded human umbilical cord tissue-derived cells (022803 P4) were seeded into 6-well tissue culture plates and cultured in Dulbecco's Modified Eagles Media (DMEM)-low glucose, 15% fetal bovine serum (FBS), penicillin/streptomycin (P/S), Betamercaptoethanol (BME) to approximately 70% confluence. The cells were then treated with media containing 10 μM of respective HMG-CoA reductase inhibitor (Simvastatic acid (Alexis Biochemicals, Lausen, Switzerland) formulated as 10 mM stock reagents in DMSO) or DMSO vehicle—0.1% (Sigma, St. Louis, Mo.) and incubated overnight. The media was removed by aspiration and replaced with media containing 500 U/ml rhIFN-gamma (BD Pharmingen, Franklin Lakes, N.J.) and […] of respective HMG-CoA reductase inhibitor and incubated for 3 days. On day three, cells were harvested with trypsin.
Harvested cells were washed once with PBS and re-suspended in 100 μl of 3% FBS in PBS with 20 μl FITC-labeled HLA-DR,DP,DQ (BD Biosciences, Franklin Lakes, N.J.) or FITC-labeled IgG antibody (BD Biosciences, Franklin Lakes, N.J.) and incubated for one hour. Cells were washed once in PBS and resuspended in 500 μl PBS and analyzed on a FACSCalibur flow cytometer (BS Biosciences, Franklin Lakes, N.J.).

**Q.** Which “HLA-DR, DP, DQ expression, FITC fluorescence intensity, IFN-gamma-treated, mean” value (10 μM inhibitor overnight, then 500 U/ml rhIFN-gamma plus inhibitor 3 days) does the source give for CCC(C)(C)C(=O)O[C@H]1C[C@@H](C)C=C2C=C[C@H](C)[C@H](CC[C@@H]3C[C@@H](O)CC(=O)O3)[C@H]21 [Simvastatin] here?
**A.** The value was 5.57.

**Q.** And the “HLA-DR, DP, DQ expression, FITC fluorescence intensity, No cytokine treatment, Mean” value (10 μM inhibitor, no IFN-gamma)?
**A.** Its value is 5.66.

**Q.** And the “FITC fluorescence intensity, IgG control, mean” value (10 μM inhibitor, FITC-labeled IgG antibody)?
**A.** The value was 4.4.
